Test results from the supplement of paper PMC10307832.

Assays:
Experiment in all cases: relative viability (nuclei count vs DMSO), 5 days (fraction); higher = more cells survive
HCC-44 = test system: HCC-44
How it was run: (§1)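 Nuclei were stained with Hoechst during a one-step fixation (final 0.05% Triton X-100, 1% formaldehyde, 1 ug/ml Hoechst) carried out 5 days after dosing, then counted on 4× images. The cells, lung cancer lines in 1536-well plates, had been dosed by pin tool the day after seeding with one drug alone or a fixed anchor-drug dose plus five library-drug doses (not always all listed) in √10 steps. Relative viability is the nuclei count in treated wells divided by that in vehicle wells, and each value is the median of duplicate plates.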

NCI-H1650 = test system: NCI-H1650
How it was run: as §1

BEN = test system: BEN
How it was run: as §1

NCI-H1355 = test system: NCI-H1355
How it was run: as §1

NCI-H520 = test system: NCI-H520
How it was run: as §1

SW 1573 = test system: SW 1573
How it was run: as §1

201T = test system: 201T
How it was run: as §1

NCI-H2228 = test system: NCI-H2228
How it was run: as §1

NCI-H838 = test system: NCI-H838
How it was run: as §1

NCI-H1666 = test system: NCI-H1666
How it was run: as §1

ABC-1 = test system: ABC-1
How it was run: as §1

NCI-H727 = test system: NCI-H727
How it was run: as §1

HCC-366 = test system: HCC-366
How it was run: as §1

NCI-H1734 = test system: NCI-H1734
How it was run: as §1

NCI-H358 = test system: NCI-H358
How it was run: as §1

LOU-NH91 = test system: LOU-NH91
How it was run: as §1

NCI-H2009 = test system: NCI-H2009
How it was run: as §1

LK-2 = test system: LK-2
How it was run: as §1

NCI-H2347 = test system: NCI-H2347
How it was run: as §1

NCI-H1755 = test system: NCI-H1755
How it was run: as §1

NCI-H2405 = test system: NCI-H2405
How it was run: as §1

UMC-11 = test system: UMC-11
How it was run: as §1

HCC-78 = test system: HCC-78
How it was run: as §1

Cc1cnc(-c2cnc(NCCNc3ccc(C#N)cn3)nc2-c2ccc(Cl)cc2Cl)[nH]1 + CC(=O)c1c(C)c2cnc(Nc3ccc(N4CCNCC4)cn3)nc2n(C2CCCC2)c1=O [Palbociclib] (partner 0.5 µM) was tested, and the relative viability (HCC-44; first compound 0.08 µM) was 0.957, the relative viability (HCC-44; first compound 0.253 µM) was 0.931 and the relative viability (HCC-44; first compound 0.8 µM) was 0.97. For the same compound, the relative viability (HCC-44; first compound 2.53 µM) was 0.985, the relative viability (NCI-H1650; first compound 0.08 µM) was 0.368 and the relative viability (NCI-H1650; first compound 0.253 µM) was 0.306. The relative viability (NCI-H1650; first compound 0.8 µM) was 0.306, the relative viability (NCI-H1650; first compound 2.53 µM) was 0.258 and the relative viability (BEN; first compound 0.08 µM) was 0.495. The relative viability (BEN; first compound 0.253 µM) was 0.506, the relative viability (BEN; first compound 0.8 µM) was 0.687 and the relative viability (BEN; first compound 2.53 µM) was 0.545. It also gave a relative viability (NCI-H1355; first compound 0.08 µM) of 0.427, a relative viability (NCI-H1355; first compound 0.253 µM) of 0.383 and a relative viability (NCI-H1355; first compound 0.8 µM) of 0.407. It also gave a relative viability (NCI-H1355; first compound 2.53 µM) of 0.383, a relative viability (NCI-H520; first compound 0.08 µM) of 0.332 and a relative viability (NCI-H520; first compound 0.253 µM) of 0.202. The relative viability (NCI-H520; first compound 0.8 µM) was 0.224, the relative viability (NCI-H520; first compound 2.53 µM) was 0.265 and the relative viability (SW 1573; first compound 0.08 µM) was 0.387. It also gave a relative viability (SW 1573; first compound 0.253 µM) of 0.336, a relative viability (SW 1573; first compound 0.8 µM) of 0.368 and a relative viability (SW 1573; first compound 2.53 µM) of 0.146. For the same compound, the relative viability (201T; first compound 0.08 µM) was 0.384, the relative viability (201T; first compound 0.8 µM) was 0.362 and the relative viability (201T; first compound 2.53 µM) was 0.38. It also gave a relative viability (NCI-H2228; first compound 0.08 µM) of 0.83, a relative viability (NCI-H2228; first compound 0.253 µM) of 0.716 and a relative viability (NCI-H2228; first compound 0.8 µM) of 0.734. The relative viability (NCI-H2228; first compound 2.53 µM) was 0.648, the relative viability (NCI-H838; first compound 0.08 µM) was 0.259 and the relative viability (NCI-H838; first compound 0.253 µM) was 0.256. For the same compound, the relative viability (NCI-H838; first compound 0.8 µM) was 0.253, the relative viability (NCI-H838; first compound 2.53 µM) was 0.389 and the relative viability (NCI-H1666; first compound 0.08 µM) was 0.607. It also gave a relative viability (NCI-H1666; first compound 0.253 µM) of 0.626, a relative viability (NCI-H1666; first compound 0.8 µM) of 0.615 and a relative viability (NCI-H1666; first compound 2.53 µM) of 0.609. For the same compound, the relative viability (ABC-1; first compound 0.08 µM) was 0.903, the relative viability (ABC-1; first compound 0.253 µM) was 0.338 and the relative viability (ABC-1; first compound 0.8 µM) was 0.54. For the same compound, the relative viability (ABC-1; first compound 2.53 µM) was 0.675, the relative viability (NCI-H727; first compound 0.08 µM) was 0.659 and the relative viability (NCI-H727; first compound 0.253 µM) was 0.637. The relative viability (NCI-H727; first compound 0.8 µM) was 0.644, the relative viability (NCI-H727; first compound 2.53 µM) was 0.663 and the relative viability (HCC-366; first compound 0.08 µM) was 0.404. For the same compound, the relative viability (HCC-366; first compound 0.253 µM) was 0.331, the relative viability (HCC-366; first compound 0.8 µM) was 0.391 and the relative viability (HCC-366; first compound 2.53 µM) was 0.312. The relative viability (NCI-H1734; first compound 0.08 µM) was 0.403, the relative viability (NCI-H1734; first compound 0.253 µM) was 0.342 and the relative viability (NCI-H1734; first compound 0.8 µM) was 0.391. It also gave a relative viability (NCI-H1734; first compound 2.53 µM) of 0.189, a relative viability (NCI-H358; first compound 0.08 µM) of 0.13 and a relative viability (NCI-H358; first compound 0.253 µM) of 0.14. For the same compound, the relative viability (NCI-H358; first compound 0.8 µM) was 0.134, the relative viability (NCI-H358; first compound 2.53 µM) was 0.143 and the relative viability (LOU-NH91; first compound 0.08 µM) was 0.547. For the same compound, the relative viability (LOU-NH91; first compound 0.253 µM) was 0.515, the relative viability (LOU-NH91; first compound 0.8 µM) was 0.581 and the relative viability (LOU-NH91; first compound 2.53 µM) was 0.527. The relative viability (NCI-H2009; first compound 0.08 µM) was 0.256, the relative viability (NCI-H2009; first compound 0.253 µM) was 0.208 and the relative viability (NCI-H2009; first compound 0.8 µM) was 0.29. For the same compound, the relative viability (NCI-H2009; first compound 2.53 µM) was 0.225, the relative viability (LK-2; first compound 0.08 µM) was 0.754 and the relative viability (LK-2; first compound 0.253 µM) was 0.645. The relative viability (LK-2; first compound 2.53 µM) was 0.583, the relative viability (NCI-H2347; first compound 0.08 µM) was 0.411 and the relative viability (NCI-H2347; first compound 0.253 µM) was 0.406. For the same compound, the relative viability (NCI-H2347; first compound 0.8 µM) was 0.438, the relative viability (NCI-H2347; first compound 2.53 µM) was 0.493 and the relative viability (NCI-H1755; first compound 0.08 µM) was 0.418. It also gave a relative viability (NCI-H1755; first compound 0.253 µM) of 0.443, a relative viability (NCI-H1755; first compound 0.8 µM) of 0.446 and a relative viability (NCI-H1755; first compound 2.53 µM) of 0.438. For the same compound, the relative viability (NCI-H2405; first compound 0.08 µM) was 0.571, the relative viability (NCI-H2405; first compound 0.253 µM) was 0.452 and the relative viability (NCI-H2405; first compound 0.8 µM) was 0.57. For the same compound, the relative viability (NCI-H2405; first compound 2.53 µM) was 0.495, the relative viability (UMC-11; first compound 0.08 µM) was 0.354 and the relative viability (UMC-11; first compound 0.253 µM) was 0.346. It also gave a relative viability (UMC-11; first compound 0.8 µM) of 0.364, a relative viability (UMC-11; first compound 2.53 µM) of 0.401 and a relative viability (HCC-78; first compound 0.08 µM) of 0.463. It also gave a relative viability (HCC-78; first compound 0.253 µM) of 0.441, a relative viability (HCC-78; first compound 0.8 µM) of 0.466 and a relative viability (HCC-78; first compound 2.53 µM) of 0.467.
